Measured values taken from article PMC2794250, “An MDM2 antagonist (MI-319) restores p53 functions and increases the life span of orally treated follicular lymphoma bearing animals” (2009).

Molecular target: MDM2 (Homo sapiens, UniProt Q00987)
Test: biochemical

MDM2, sequence (Q00987 1-118): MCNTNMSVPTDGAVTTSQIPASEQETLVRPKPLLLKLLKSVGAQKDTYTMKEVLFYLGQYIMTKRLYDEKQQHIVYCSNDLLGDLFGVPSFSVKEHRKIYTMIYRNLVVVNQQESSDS

CC(C)(C)C[C@H]1N[C@@H](C(=O)NCC[C@H](O)CO)[C@H](c2ccc(F)c(Cl)c2)[C@@]12C(=O)Nc1cc(Cl)c(F)cc12 [MI-319]
Ki: 9.6 ± 3.9 nM
